{"source": "paper PMC8480776", "about": "“Selenium Derivatives as Promising Therapy for Chagas Disease: In Vitro and In Vivo Studies” (ACS Infectious Diseases, 2021)", "key": {"[1]": {"test_system": "Vero cells infected with T. cruzi Arequipa strain", "test": "Infection rate in Vero cells (infected cells), Arequipa strain", "type": "cell-based", "settings": "Trypanosoma cruzi, 72 h of treatment"}, "[2]": {"type": "in vivo, BALB/c mice", "settings": "variation vs control", "procedure": "(§1) Female BALB/c mice aged 10–12 weeks and with a size of 20–24 g were divided into five groups (n = 3 per group): 0, negative control group (uninfected and untreated mice); I, positive control group (infected and untreated mice); II, BZN group (infected mice treated with BZN); III, 26 group (infected mice treated with 26); and IV, 28 group (infected mice treated with 28).\n(§2) The tested selenocompounds and BZN were prepared at 2 mg·mL^–1 in an aqueous suspension vehicle containing 5% (v/v) DMSO and 0.5% (w/v) hydroxypropyl methylcellulose, as previously reported.[52] Compounds (20 mg·kg^–1 per day) were administered for 5 consecutive days (total dosages of 100 mg·kg^–1), and vehicle only was administered in the negative and positive control groups. Treatments began when the infection was confirmed (9 dpi) for acute-phase-treated mice, and when it was established that the animals moved into the chronic phase (100 dpi, for chronic-phase-treated mice; Scheme 1).\nSerum samples obtained from blood in several days post-infection (Scheme 1) were sent to the Biochemical Service (University of Granada) to measure a series of biochemical parameters with the commercial Cromakit using a clinical chemistry analyzer (BS-200, Shenzhen Mindray Biomedical Electronics Co., LTD), as previously described.[41]"}, "[3]": {"test_system": "epimastigotes of T. cruzi Arequipa strain", "test": "Flow cytometry analysis of nucleic acid levels (acridine orange)", "type": "cell-based, Trypanosoma cruzi", "settings": "IC25 concentrations, 72 h"}, "T. cruzi Arequipa strain": {"test_system": "T. cruzi Arequipa strain", "test": "In vivo trypanocidal activity on BALB/c mice (acute and chronic Chagas disease)", "parameters": "species or system Trypanosoma cruzi", "procedure": "as §1\nMice were infected by intraperitoneal injection of 5 × 10^5 BTs of T. cruzi Arequipa strain per mouse in 200 μL PBS.[42] Subsequently, the treatment was intraperitoneally administered (∼200 μL) once daily for 5 consecutive days.\nas §2\n[…]. Parasitemia was expressed as parasites·mL^–1.\nImmunosuppression was performed by intraperitoneal injection of three doses of 200 mg·kg^–1 of ISOPAC CP at 3–4 day intervals (Scheme 1), as previously reported.[53] Mice were closely monitored for side effects or for secondary infections due to immunosuppression. Within 7 days after the last CP injection, parasitemia reactivation was determined by counting BTs according the procedure described for parasitemia in the acute phase.[42]\nOn 145 dpi, the mice were euthanized using CO2, followed by exsanguination via cardiac puncture, and blood was collected. […]. In addition, spleens were weighed to assess splenomegaly.[42]\nDNA extraction of the post-mortem organs/tissues was performed using Wizard Genomic DNA Purification Kit,[41] and the extracted DNA was subjected to amplification by PCR based on the spliced leader (SL) intergenic region sequence of T. cruzi (for detailed description, see literature reported previously).[55] Finally, the PCR products were resolved by electrophoresis on a 2% agarose gel (containing GelRed nucleic gel stain) for 90 min at 90 V.\nCirculating antibodies in serum against both antigens were quantitatively evaluated in triplicate by the ELISA test in 96-well plates using diluted serum samples (1:80 in PBS), as previously described.[41]"}, "[4]": {"test_system": "T. cruzi epimastigotes, Tulahuen strain", "test": "Screening against extracellular epimastigotes, Tulahuen strain", "type": "cell-based, Trypanosoma cruzi", "settings": "Trypanosoma cruzi, TULAHUEN; 48 h + 24 h resazurin; read-out: Activity IC50, epimastigote form, Tulahuen strain"}, "[5]": {"test_system": "T. cruzi trypomastigotes, Arequipa strain", "test": "Screening against bloodstream trypomastigotes, Arequipa strain", "type": "cell-based, Trypanosoma cruzi", "settings": "Trypanosoma cruzi; bloodstream trypomastigotes, 24 h + 4 h resazurin; read-out: activity IC50, Arequipa strain, trypom. forms"}, "[6]": {"test_system": "T. cruzi amastigotes, Tulahuen strain", "test": "Screening against intracellular amastigotes, Tulahuen strain", "type": "cell-based, Trypanosoma cruzi", "settings": "Trypanosoma cruzi, TULAHUEN; amastigotes in Vero cells, 72 h; read-out: activity IC50, Tulahuen strain, am. forms"}, "Vero cells": {"test_system": "Vero cells", "test": "Cytotoxicity test on Vero cells", "type": "cell-based", "settings": "Chlorocebus sabaeus, 48 h + 24 h resazurin, read-out: Toxicity IC50 Vero cell"}, "[7]": {"test_system": "T. cruzi amastigotes, SN3 strain", "test": "Screening against intracellular amastigotes, SN3 strain", "type": "cell-based, Trypanosoma cruzi", "settings": "Trypanosoma cruzi; amastigotes in Vero cells, 72 h; read-out: activity IC50, SN3 strain, am. forms"}, "[8]": {"test_system": "T. cruzi trypomastigotes, Tulahuen strain", "test": "Screening against bloodstream trypomastigotes, Tulahuen strain", "type": "cell-based, Trypanosoma cruzi", "settings": "Trypanosoma cruzi, TULAHUEN; bloodstream trypomastigotes, 24 h + 4 h resazurin; read-out: activity IC50, Tulahuen strain, trypom. forms"}, "[9]": {"test_system": "T. cruzi amastigotes, Arequipa strain", "test": "Screening against intracellular amastigotes, Arequipa strain", "type": "cell-based, Trypanosoma cruzi", "settings": "Trypanosoma cruzi; amastigotes in Vero cells, 72 h; read-out: activity IC50, Arequipa strain, am. forms"}, "[10]": {"settings": "treatment in acute phase, 15th dpi (2 days after treatment)"}, "[11]": {"settings": "treatment in acute phase, necropsy day"}, "[12]": {"settings": "treatment in chronic phase, 106th dpi (2 days after treatment)"}, "[13]": {"settings": "treatment in chronic phase, necropsy day"}}, "note": "Where two headings read alike, the source gives them in different places.", "data": [{"smiles": "O=C(Cn1ccnc1[N+](=O)[O-])NCc1ccccc1", "note": "[BZN, benznidazole, reference compound]", "values": [{"measurement": "IC50", "setting": "[1]", "value": 15.1, "unit": "µM"}, {"measurement": "ALP (liver marker)", "setting": "[2]; [10]", "value": "= (=, variation ≤ 10%)"}, {"measurement": "ALT/GPT (liver marker)", "setting": "[2]; [10]", "value": "++ (++/--, 20-30% increase/decrease over the range)"}, {"measurement": "AST/GOT (liver marker)", "setting": "[2]; [10]", "value": "++++ (++++/----, ˃ 40% increase/decrease over the range)"}, {"measurement": "CK-MB (heart marker)", "setting": "[2]; [10]", "value": "= (=, variation ≤ 10%)"}, {"measurement": "LDH (heart marker)", "setting": "[2]; [10]", "value": "= (=, variation ≤ 10%)"}, {"measurement": "Total bilirubin (liver marker)", "setting": "[2]; [10]", "value": "++++ (++++/----, ˃ 40% increase/decrease over the range)"}, {"measurement": "Urea (kidney marker)", "setting": "[2]; [10]", "value": "-- (++/--, 20-30% increase/decrease over the range)"}, {"measurement": "Uric acid (kidney marker)", "setting": "[2]; [10]", "value": "---- (++++/----, ˃ 40% increase/decrease over the range)"}, {"measurement": "ALP (liver marker)", "setting": "[2]; [11]", "value": "= (=, variation ≤ 10%)"}, {"measurement": "ALT/GPT (liver marker)", "setting": "[2]; [11]", "value": "= (=, variation ≤ 10%)"}, {"measurement": "AST/GOT (liver marker)", "setting": "[2]; [11]", "value": "+ (+/-, 10-20% increase/decrease over the range)"}, {"measurement": "CK-MB (heart marker)", "setting": "[2]; [11]", "value": "- (+/-, 10-20% increase/decrease over the range)"}, {"measurement": "LDH (heart marker)", "setting": "[2]; [11]", "value": "= (=, variation ≤ 10%)"}, {"measurement": "Total bilirubin (liver marker)", "setting": "[2]; [11]", "value": "++ (++/--, 20-30% increase/decrease over the range)"}, {"measurement": "Urea (kidney marker)", "setting": "[2]; [11]", "value": "-- (++/--, 20-30% increase/decrease over the range)"}, {"measurement": "Uric acid (kidney marker)", "setting": "[2]; [11]", "value": "- (+/-, 10-20% increase/decrease over the range)"}, {"measurement": "ALP (liver marker)", "setting": "[2]; [12]", "value": "++++ (++++/----, ˃ 40% increase/decrease over the range)"}, {"measurement": "ALT/GPT (liver marker)", "setting": "[2]; [12]", "value": "++ (++/--, 20-30% increase/decrease over the range)"}, {"measurement": "AST/GOT (liver marker)", "setting": "[2]; [12]", "value": "+ (+/-, 10-20% increase/decrease over the range)"}, {"measurement": "CK-MB (heart marker)", "setting": "[2]; [12]", "value": "-- (++/--, 20-30% increase/decrease over the range)"}, {"measurement": "LDH (heart marker)", "setting": "[2]; [12]", "value": "-- (++/--, 20-30% increase/decrease over the range)"}, {"measurement": "Total bilirubin (liver marker)", "setting": "[2]; [12]", "value": "+ (+/-, 10-20% increase/decrease over the range)"}, {"measurement": "Urea (kidney marker)", "setting": "[2]; [12]", "value": "- (+/-, 10-20% increase/decrease over the range)"}, {"measurement": "Uric acid (kidney marker)", "setting": "[2]; [12]", "value": "- (+/-, 10-20% increase/decrease over the range)"}, {"measurement": "ALP (liver marker)", "setting": "[2]; [13]", "value": "= (=, variation ≤ 10%)"}, {"measurement": "ALT/GPT (liver marker)", "setting": "[2]; [13]", "value": "++ (++/--, 20-30% increase/decrease over the range)"}, {"measurement": "AST/GOT (liver marker)", "setting": "[2]; [13]", "value": "+ (+/-, 10-20% increase/decrease over the range)"}, {"measurement": "CK-MB (heart marker)", "setting": "[2]; [13]", "value": "-- (++/--, 20-30% increase/decrease over the range)"}, {"measurement": "LDH (heart marker)", "setting": "[2]; [13]", "value": "-- (++/--, 20-30% increase/decrease over the range)"}, {"measurement": "Total bilirubin (liver marker)", "setting": "[2]; [13]", "value": "++ (++/--, 20-30% increase/decrease over the range)"}, {"measurement": "Urea (kidney marker)", "setting": "[2]; [13]", "value": "= (=, variation ≤ 10%)"}, {"measurement": "Uric acid (kidney marker)", "setting": "[2]; [13]", "value": "- (+/-, 10-20% increase/decrease over the range)"}, {"measurement": "inhibition of nucleic acid levels", "setting": "[3]", "value": "up to 22%"}, {"measurement": "parasite-free organs/tissues by PCR, acute phase treatment", "setting": "T. cruzi Arequipa strain; 20 mg·kg–1 per day i.p. 5 days from 9 dpi, necropsy 145 dpi", "value": 28.6, "unit": "%"}, {"measurement": "anti-T. cruzi IgG levels (ELISA), chronic phase treatment", "setting": "T. cruzi Arequipa strain; 20 mg·kg–1 per day i.p. 5 days from 100 dpi", "value": "similar"}, {"measurement": "parasite-free organs/tissues by PCR, chronic phase treatment", "setting": "T. cruzi Arequipa strain; 20 mg·kg–1 per day i.p. 5 days from 100 dpi, necropsy 145 dpi", "value": 42.9, "unit": "%"}, {"measurement": "IC50", "setting": "[4]", "value": "19.7 ± 1.7", "unit": "µM"}, {"measurement": "IC50", "setting": "[5]", "value": "12.4 ± 1.1", "unit": "µM"}, {"measurement": "IC50", "setting": "[6]", "value": "10 ± 0.8", "unit": "µM"}, {"measurement": "IC50", "setting": "Vero cells", "value": "80.4 ± 7.1", "unit": "µM"}, {"measurement": "IC50", "setting": "[7]", "value": "16.6 ± 1.4", "unit": "µM"}, {"measurement": "IC50", "setting": "[8]", "value": "15.1 ± 1.3", "unit": "µM"}, {"measurement": "IC50", "setting": "[9]", "value": "8.3 ± 0.7", "unit": "µM"}]}]}
